Laboratory results reported in publication PMC9090415, “Discovery of small molecule inhibitors of Plasmodium falciparum apicoplast DNA polymerase” (Journal of Enzyme Inhibition and Medicinal Chemistry, 2022).

Biological target: P. falciparum apicoplast DNA polymerase (Pf-apPOL) (Plasmodium falciparum, UniProt Q8ILY1)
Experiment: Fluorescence-based high-throughput DNA polymerase assay (molecular beacon), primary screen and dose-response;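 as to % inhibition ApPOL 90': test concentration in µM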;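 as to % inhibition Apol 40': compound concentration given in µM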;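 as to % inhibition apPOL 180': test concentration in µM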
Type: biochemical
Details: for DNA Pol: 90 min, 10 µM
How it was run: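 Single-point screening used 10 µM compound with 20 nM polymerase, 20 nM hairpin substrate and 6 µM dNTPs for 90 min at 25 °C. Confirmatory titrations (2.5–80 µM) followed fluorescence at three times, and IC50 was derived from a fit including a cooperativity term n.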

[1] = "DNA Pol" of the 186 hits list (screen value)

Chain of P. falciparum apicoplast DNA polymerase (Pf-apPOL) (Q8ILY1 entry or part of it): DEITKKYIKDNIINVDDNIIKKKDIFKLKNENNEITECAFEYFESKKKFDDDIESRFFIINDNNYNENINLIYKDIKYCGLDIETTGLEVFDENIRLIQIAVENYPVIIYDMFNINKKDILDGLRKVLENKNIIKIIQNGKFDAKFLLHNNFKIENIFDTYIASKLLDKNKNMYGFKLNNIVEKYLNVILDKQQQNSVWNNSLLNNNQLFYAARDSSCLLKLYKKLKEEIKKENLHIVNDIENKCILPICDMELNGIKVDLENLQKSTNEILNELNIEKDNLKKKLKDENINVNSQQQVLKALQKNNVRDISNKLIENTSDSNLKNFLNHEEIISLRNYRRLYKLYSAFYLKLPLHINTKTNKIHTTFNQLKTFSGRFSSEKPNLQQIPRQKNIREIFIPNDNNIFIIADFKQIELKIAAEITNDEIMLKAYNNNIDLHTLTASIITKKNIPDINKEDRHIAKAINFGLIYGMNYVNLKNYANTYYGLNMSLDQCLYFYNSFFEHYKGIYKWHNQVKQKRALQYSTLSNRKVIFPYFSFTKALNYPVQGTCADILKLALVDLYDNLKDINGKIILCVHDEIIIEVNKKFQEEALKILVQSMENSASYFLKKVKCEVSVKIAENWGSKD

O=C(Nc1ccc2c(c1)Cc1cc(NC(=O)c3ccco3)ccc1-2)c1ccco1 [KU0038977]
DNA Pol [1]: 27
% inhibition Apo pol 10' (DRC-1, concentration 2.5): -0.5837%
% inhibition Apo pol 10' (DRC-1, concentration 5): 5.785%
% inhibition Apo pol 10' (DRC-1, concentration 10): 28.4085%
% inhibition Apo pol 10' (DRC-1, concentration 20): 37.8617%
% inhibition Apo pol 10' (DRC-1, concentration 40): 75.7214%
% inhibition Apo pol 10' (DRC-1, concentration 80): 91.1334%
% inhibition Apol 90' (DRC-1, concentration 2.5): -0.5506%
% inhibition Apol 90' (DRC-1, concentration 5): 1.199%
% inhibition Apol 90' (DRC-1, concentration 10): 17.4686%
% inhibition Apol 90' (DRC-1, concentration 20): 25.9%
% inhibition Apol 90' (DRC-1, concentration 40): 60.9972%
% inhibition Apol 90' (DRC-1, concentration 80): 80.3159%
% inhibition apPOL 180' (DRC-1, concentration 2.5): -0.3262%
% inhibition apPOL 180' (DRC-1, concentration 5): 0.08289%
% inhibition apPOL 180' (DRC-1, concentration 10): 10.649%
% inhibition apPOL 180' (DRC-1, concentration 20): 16.9681%
% inhibition apPOL 180' (DRC-1, concentration 40): 47.3942%
% inhibition apPOL 180' (DRC-1, concentration 80): 72.1517%
% inhibition Apo pol 5' (DRC-2, concentration 2.5): 21%
% inhibition Apo pol 5' (DRC-2, concentration 5): 10%
% inhibition Apo pol 5' (DRC-2, concentration 10): 35%
% inhibition Apo pol 5' (DRC-2, concentration 20): 42%
% inhibition Apo pol 5' (DRC-2, concentration 40): 53%
% inhibition Apo pol 5' (DRC-2, concentration 80): 27%
% inhibition Apol 40' (DRC-2, concentration 2.5): 30%
% inhibition Apol 40' (DRC-2, concentration 5): 10%
% inhibition Apol 40' (DRC-2, concentration 10): 40%
% inhibition Apol 40' (DRC-2, concentration 20): 52%
% inhibition Apol 40' (DRC-2, concentration 40): 69%
% inhibition Apol 40' (DRC-2, concentration 80): 58%
% inhibition ApPOL 90' (DRC-2, concentration 2.5): 29%
% inhibition ApPOL 90' (DRC-2, concentration 5): 6.46%
% inhibition ApPOL 90' (DRC-2, concentration 10): 35%
% inhibition ApPOL 90' (DRC-2, concentration 20): 50%
% inhibition ApPOL 90' (DRC-2, concentration 40): 71%
% inhibition ApPOL 90' (DRC-2, concentration 80): 65%
% inhibition apPOL 180' (DRC-2, concentration 2.5): 20%
% inhibition apPOL 180' (DRC-2, concentration 5): -3.38%
% inhibition apPOL 180' (DRC-2, concentration 10): 23%
% inhibition apPOL 180' (DRC-2, concentration 20): 40%
% inhibition apPOL 180' (DRC-2, concentration 40): 68%
% inhibition apPOL 180' (DRC-2, concentration 80): 69%
DNA Pol (primary screen value, DNA Pol): 27

CN(C)S(=O)(=O)Oc1ccc(-c2noc(-c3ccc(Oc4cc(Cl)cc(Cl)c4)o3)n2)cc1 [KU0263859]
DNA Pol [1]: 81
% inhibition Apo pol 10' (DRC-1, concentration 2.5): 3.819%
% inhibition Apo pol 10' (DRC-1, concentration 5): 17.153%
% inhibition Apo pol 10' (DRC-1, concentration 10): 39.7031%
% inhibition Apo pol 10' (DRC-1, concentration 20): 66.3992%
% inhibition Apo pol 10' (DRC-1, concentration 40): 79.6706%
% inhibition Apo pol 10' (DRC-1, concentration 80): 81.4369%
% inhibition Apol 90' (DRC-1, concentration 2.5): 1.99%
% inhibition Apol 90' (DRC-1, concentration 5): 7.942%
% inhibition Apol 90' (DRC-1, concentration 10): 26.2984%
% inhibition Apol 90' (DRC-1, concentration 20): 55.9318%
% inhibition Apol 90' (DRC-1, concentration 40): 71.2326%
% inhibition Apol 90' (DRC-1, concentration 80): 82.3525%
% inhibition apPOL 180' (DRC-1, concentration 2.5): 0.6453%
% inhibition apPOL 180' (DRC-1, concentration 5): 1.378%
% inhibition apPOL 180' (DRC-1, concentration 10): 13.3092%
% inhibition apPOL 180' (DRC-1, concentration 20): 44.3234%
% inhibition apPOL 180' (DRC-1, concentration 40): 58.5688%
% inhibition apPOL 180' (DRC-1, concentration 80): 76.7438%
% inhibition Apo pol 5' (DRC-2, concentration 2.5): 2.6%
% inhibition Apo pol 5' (DRC-2, concentration 5): 18%
% inhibition Apo pol 5' (DRC-2, concentration 10): 34%
% inhibition Apo pol 5' (DRC-2, concentration 20): 47%
% inhibition Apo pol 5' (DRC-2, concentration 40): 47%
% inhibition Apo pol 5' (DRC-2, concentration 80): 46%
% inhibition Apol 40' (DRC-2, concentration 2.5): 3%
% inhibition Apol 40' (DRC-2, concentration 5): 16%
% inhibition Apol 40' (DRC-2, concentration 10): 36%
% inhibition Apol 40' (DRC-2, concentration 20): 57%
% inhibition Apol 40' (DRC-2, concentration 40): 65%
% inhibition Apol 40' (DRC-2, concentration 80): 68%
% inhibition ApPOL 90' (DRC-2, concentration 2.5): 0.164%
% inhibition ApPOL 90' (DRC-2, concentration 5): 12%
% inhibition ApPOL 90' (DRC-2, concentration 10): 32%
% inhibition ApPOL 90' (DRC-2, concentration 20): 56%
% inhibition ApPOL 90' (DRC-2, concentration 40): 67%
% inhibition ApPOL 90' (DRC-2, concentration 80): 73%
% inhibition apPOL 180' (DRC-2, concentration 2.5): -5.61%
% inhibition apPOL 180' (DRC-2, concentration 5): 5.64%
% inhibition apPOL 180' (DRC-2, concentration 10): 20%
% inhibition apPOL 180' (DRC-2, concentration 20): 47%
% inhibition apPOL 180' (DRC-2, concentration 40): 65%
% inhibition apPOL 180' (DRC-2, concentration 80): 76%
DNA Pol (primary screen value, DNA Pol): 81

O=C(O)CCS(=O)(=O)c1ccc(-c2ccc(S(=O)(=O)CCC(=O)O)cc2)cc1 [Molecule 32, OC(=O)CCS(=O)(=O)c1ccc(cc1)c1ccc(cc1)S(=O)(=O)CCC(=O)O]
DNA Pol [1]: 40
% inhibition Apo pol 10' (DRC-1, concentration 2.5): 22.5031%
% inhibition Apo pol 10' (DRC-1, concentration 5): 45.6696%
% inhibition Apo pol 10' (DRC-1, concentration 10): 64.9587%
% inhibition Apo pol 10' (DRC-1, concentration 20): 75.2971%
% inhibition Apo pol 10' (DRC-1, concentration 40): 82.8671%
% inhibition Apo pol 10' (DRC-1, concentration 80): 87.3536%
% inhibition Apol 90' (DRC-1, concentration 2.5): 7.663%
% inhibition Apol 90' (DRC-1, concentration 5): 20.8234%
% inhibition Apol 90' (DRC-1, concentration 10): 43.1445%
% inhibition Apol 90' (DRC-1, concentration 20): 59.5248%
% inhibition Apol 90' (DRC-1, concentration 40): 71.1176%
% inhibition Apol 90' (DRC-1, concentration 80): 79.0648%
% inhibition apPOL 180' (DRC-1, concentration 2.5): -2.177%
% inhibition apPOL 180' (DRC-1, concentration 5): 7.502%
% inhibition apPOL 180' (DRC-1, concentration 10): 30.5046%
% inhibition apPOL 180' (DRC-1, concentration 20): 50.8957%
% inhibition apPOL 180' (DRC-1, concentration 40): 64.8259%
% inhibition apPOL 180' (DRC-1, concentration 80): 73.8924%
% inhibition Apo pol 5' (DRC-2, concentration 2.5): 15%
% inhibition Apo pol 5' (DRC-2, concentration 5): 24%
% inhibition Apo pol 5' (DRC-2, concentration 10): 39%
% inhibition Apo pol 5' (DRC-2, concentration 20): 43%
% inhibition Apo pol 5' (DRC-2, concentration 40): 49%
% inhibition Apo pol 5' (DRC-2, concentration 80): 51%
% inhibition Apol 40' (DRC-2, concentration 2.5): 10%
% inhibition Apol 40' (DRC-2, concentration 5): 15%
% inhibition Apol 40' (DRC-2, concentration 10): 31%
% inhibition Apol 40' (DRC-2, concentration 20): 40%
% inhibition Apol 40' (DRC-2, concentration 40): 53%
% inhibition Apol 40' (DRC-2, concentration 80): 63%
% inhibition ApPOL 90' (DRC-2, concentration 2.5): 5.57%
% inhibition ApPOL 90' (DRC-2, concentration 5): 8%
% inhibition ApPOL 90' (DRC-2, concentration 10): 26%
% inhibition ApPOL 90' (DRC-2, concentration 20): 37%
% inhibition ApPOL 90' (DRC-2, concentration 40): 52%
% inhibition ApPOL 90' (DRC-2, concentration 80): 65%
% inhibition apPOL 180' (DRC-2, concentration 2.5): -4.51%
% inhibition apPOL 180' (DRC-2, concentration 5): -2.16%
% inhibition apPOL 180' (DRC-2, concentration 10): 17%
% inhibition apPOL 180' (DRC-2, concentration 20): 32%
% inhibition apPOL 180' (DRC-2, concentration 40): 49%
% inhibition apPOL 180' (DRC-2, concentration 80): 64%
DNA Pol (primary screen value, DNA Pol): 40
